Data as given in article PMC7177456, “A Peptidomimetic Fluorescent Probe to Detect the Trypsin β2 Subunit of the Human 20S Proteasome” (International Journal of Molecular Sciences, 2020).

Columns and labels:
[1] = biological target: T1, human 20S proteasome, trypsin-like (β2) subunit (Homo sapiens, UniProt P49720+Q99436); experiment: Kinetic parameters of substrate 1 with human 20S proteasome (allosteric fit); format: biochemical; settings: for kcat/Km: calculated from the kcat and Km values; for Km / kcat: 20S proteasome 1.07 × 10^−9 M
T1 construct: purchased Boston Biochem (Cambridge, MA, USA)
Experimental: (§1) For enzymatic studies, the human 20S proteasome, 26S proteasome, and 20S immunoproteasome were purchased from Boston Biochem (Cambridge, MA, USA). The 20S proteasome concentration for library deconvolution was in the nanomolar range, and this proteasome entity was used for the main study. Deconvolution of the peptide libraries was performed using the iterative solution method. Dimethyl sulfoxide (DMSO) was used as a solvent for preparation of the stock solution (5 mg/mL) for each lyophilized sub-library. This stock solution was diluted ten times using an assay buffer (50 mM Tris/HCl buffer (pH 8.2)) for the 20S and 20Si proteasome, and for 26S, the buffer was supplemented with 40 mM KCl, 2 mM EDTA, 1 mM DTT, 100 µM ATP, and 50 µg/mL bovine serum albumin (BSA). The volume composition of each well of the 96-well plate was: 20 µL library, 160 µL assay buffer, and 20 µL 20S proteasome solution at a concentration of 1.07 × 10^−9 M. Absorbance or fluorescence measurements were performed on a FluoroStar OMEGA multimode microplate reader (BMG, Ortenberg, Germany). Absorbance increases were monitored at 410 nm. The excitation and emission wavelengths were 320 and 450 nm respectively, for the ABZ/ANB. Enzymatic hydrolysis of the peptide was performed in the assay buffer at 37 °C and continued over 60 min.
The procedures to determine the kinetic constants Km and kcat are described below. Increasing concentrations of substrate 1 ranged from 1 × 10^−6 to 2 × 10^−5 M. In parallel, a kinetic assay with the artificial activator SDS at 0.01% was also performed. The data were fitted to an allosteric plot using GraphPad prism v6.0 (GraphPad Software Inc., La Jolla, CA, USA). The specificity constants (kcat/ Km) were calculated from the kcat and Km values. Measurements were performed using a 20S proteasome concentration of 1.07 × 10^−9 M. Three to five measurements were performed for each compound dilution (the systematic error, defined as the standard deviation, never surpassed 20%). The initial hydrolysis rates were used as the amount of enzymatic activity for the tested compounds. All kinetic study details and kinetic parameters have been described elsewhere.

20S proteasome [2] = experiment: Library deconvolution, cleavage rates of sublibraries and individual compounds; format: biochemical, human; settings: P4 Dap(O2(Cbz)), P3 Dap(GO1); 3.4 × 10^−6 M; 20S proteasome 1.46 × 10^−9 M; pH 8.2, 37 °C
Experimental: Deconvolution of the synthesized library with a fixed Arg in position P1 and diversified by DAPEG residues at positions P2–P4 was performed in a solution using a mix and split approach. […] Since the proteasome structure has three pairs of catalytically active subunits with distinct specificities (chymotrypsin, trypsin, and caspase), we repeated these experiments in the presence of a trypsin subunit inhibitor (PR671A). In effect, a 96% reduction in activity was recorded. This observation allowed us to proceed with screening at position P3 (Figure 2A).
Figure 2 Deconvolution of the library (at an average concentration of 3.4 × 10^−6 M) with the general formula ABZ–X4–X3–X2–Arg–ANB–NH2 against the 20S proteasome (1.46 × 10^−9 M). (A) Cleavage rates of individual sublibraries recorded for position X4; (B) Cleavage rates of individual sublibraries recorded for position X3; (C) Cleavage rates of individual compounds modified in position X2. […]
For enzymatic studies, the human 20S proteasome, 26S proteasome, and 20S immunoproteasome were purchased from Boston Biochem (Cambridge, MA, USA). […] The volume composition of each well of the 96-well plate was: 20 µL library, 160 µL assay buffer, and 20 µL 20S proteasome solution at a concentration of 1.07 × 10^−9 M. Absorbance or fluorescence measurements were performed on a FluoroStar OMEGA multimode microplate reader (BMG, Ortenberg, Germany). […]

20S proteasome [3] = experiment: Inhibitory studies: cleavage of substrate 1 in the presence of selective proteasome inhibitors; format: biochemical, human; settings: deduced from cleavage with selective inhibitors
From the text: A black, 96-well flat-bottomed microplate (Brand GMBH, Wertheim, Germany) was used for the inhibitory studies. Two inhibitors, carfilzomib (a selective inhibitor of the β5 subunit of the 20S proteasome) and epoxomicin, were purchased from Merck (Darmstadt, Germany) and used at final concentrations of 1.15 × 10^−6 M and 5.0 × 10^−5 M, respectively. The β2 inhibitor, PR671A [20], and the β1 inhibitor, NCOO1 [21], were used at a concentration of 5 × 10^−6 M. These reagents were kindly provided by Alexei Kisselev from Dartmouth University (Dartmouth, NH, USA). The concentration of 20S proteasome was 1.07 × 10^−9 M. The buffered proteasome solution was mixed with 10 µL inhibitor solution. This mixture was incubated for 30 min at 37 °C. After this period, the substrate solution was added at a concentration of 1.34 × 10^−5 M, and the fluorescence was measured over time at 320 nm excitation and 450 nm emission wavelengths. All measurements were performed in triplicate.

20S proteasome [4] = experiment: Titration: 20S proteasome assay detection limit; format: biochemical, human; settings: substrate 1.34 × 10^−5 M; 20S proteasome 0.05 to 2 nM; 37 °C, 30 min; 320/450 nm; triplicate
Experimental: A total of 160 µL assay buffer was added to each well of the 96-well plate, containing a constant substrate concentration (1.34 × 10^−5 M) (20 µL), followed by 20 µL of the 20S proteasome, with concentrations ranging from 0.05 to 2 nM. In total, seven different concentrations were used. The excitation and emission wavelengths were 320 and 450 nm, respectively. Enzymatic hydrolysis of the peptide was performed in the previously described buffer at 37 °C and continued over 30 min. A linear fragment of the curve was chosen, and the slope was calculated for each system. All measurements were performed in triplicate.

[5] = tested on: 20S proteasome, 26S proteasome and immunoproteasome 20S; experiment: Cleavage of substrate 1 by 20S, 26S and 20S immunoproteasome; format: biochemical, human; settings: 20S vs 26S vs 20S immunoproteasome, equimolar concentrations; initial screening
Experimental: as §1

[6] = in the presence of artificial activator SDS 0.01%, pH 8.2, 37 °C

ABZ–Dap(O2(Cbz))–Dap(GO1)–Dap(O2(Cbz))–Arg–ANB–NH2 [substrate 1]
kcat/Km ([1]; in the presence of artificial activator SDS 0.01%): 3.23e+07 M⁻¹ s⁻¹ | Km [1, 6]: 6.84 ± 0.12 µM | kcat [1, 6]: 221 ± 18 s⁻¹ | kcat ([1]; substrate alone, without SDS, 50 mM Tris/HCl pH 8.2, 37 °C): 245 ± 21 s⁻¹ | Km ([1]; substrate alone, without SDS, 50 mM Tris/HCl pH 8.2, 37 °C, substrate 1 × 10^−6 to 2 × 10^−5 M, ABZ/ANB fluorescence 320/450 nm, three to five measurements): 3.22 ± 0.02 µM | kcat/Km ([1]; substrate alone, without SDS): 7.61e+07 M⁻¹ s⁻¹ | type of cleavage kinetics ([1]; substrate alone, characteristic for allosteric enzymes): sigmoidal kinetics | cleavage rate, position P2 (X2), individual compounds (20S proteasome [2]): significantly higher compared to the rates of the other tested systems | sub-site selectivity of hydrolysis (20S proteasome [3]): hydrolyzed exclusively by the β2 sub-site | 20S proteasome assay detection limit (20S proteasome [4]): 10^−11 M | selectivity among proteasome entities [5]: selectively proteolyzed by the 20S proteasome
